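Each compound was tested at five concentrations against cells in 96-well plates for 48 hours. TGI denotes the concentration required for complete inhibition of growth.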
Assays:
Assay in all cases: DTP human tumour cell line panel, 48 h
SNB-75 CNS = system: SNB-75 CNS
HCT-15 colon = system: HCT-15 colon
KM12 colon = system: KM12 colon
IGROV1 ovarian = system: IGROV1 ovarian
SR leukemia = system: SR leukemia
SF-539 CNS = system: SF-539 CNS
SNB-19 CNS = system: SNB-19 CNS
PC-3 prostate = system: PC-3 prostate
BT-549 breast = system: BT-549 breast
MDA-MB-435 = system: MDA-MB-435

| SMILES | TGI (SNB-75 CNS) [µM] | TGI (HCT-15 colon) [µM] | TGI (KM12 colon) [µM] | TGI (IGROV1 ovarian) [µM] | TGI (SR leukemia) [µM] | TGI (SF-539 CNS) [µM] | TGI (SNB-19 CNS) [µM] | TGI (PC-3 prostate) [µM] | TGI (BT-549 breast) [µM] | TGI (MDA-MB-435) [µM] |
| --- | --- | --- | --- | --- | --- | --- | --- | --- | --- | --- |
| C#CCSc1nc(N)c2ncn(C3OC(COP(=O)(O)O)C(O)C3O)c2n1 (stereo not drawn) | > 239 | > 239 | > 239 | > 239 | > 239 | > 239 | > 239 |  |  |  |
| O=C1NC2CCCCC2N=C1/C(C(=O)c1ccccc1)=C(\O)c1ccccc1 (stereo not drawn) |  | > 100 | > 100 | > 100 | 92.3 | > 100 | > 100 | > 100 | 55.3 | > 100 |
| COc1cc(C(c2cccc3ccccc23)N2C(=O)CCC2C(=O)NCc2ccccc2)cc(OC)c1OC (stereo not drawn) |  | > 100 | > 100 | > 100 | > 100 | > 100 | > 100 |  | > 100 | > 100 |
| CSc1nc(C#N)c(N)n1C |  | > 100 | > 100 | > 100 | > 100 | > 100 | > 100 | > 100 | > 100 | > 100 |
| COc1cccc(NC(=O)CC(=O)NNCC(=O)Nc2nnc(-c3ccc(N(CCC#N)S(=O)(=O)c4ccccc4)cc3)s2)c1 |  | > 100 | > 100 | > 100 | > 100 | > 100 | > 100 |  |  |  |
| CN1Cc2c(nc(-c3ccc(Br)cc3)c[n+]2[O-])N(C)C1 | > 100 |  | > 100 | > 100 | > 100 | > 100 | > 100 |  |  |  |
| Cc1nn(C)c2nc3ccc(Cl)cc3c(-c3ccccc3)c12 | > 100 | > 100 | > 100 |  | > 100 | > 100 | > 100 | > 100 | > 100 | > 100 |
| CCOP(=O)(OCC)C1(O)CC(n2cc(C)c(=O)[nH]c2=O)OC1CO (stereo not drawn) | > 100 | > 100 | > 100 | > 100 | > 100 | > 100 | > 100 | > 100 |  | > 100 |
| COc1cc(OC)cc(-n2c(N)c(-c3nc4ccccc4n3C)c3ccc([N+](=O)[O-])cc3c2=O)c1 | 63.9 | > 100 | > 100 |  |  |  | > 100 | > 100 | > 100 | > 100 |
| CC(=O)Nc1ccc(C(=O)N2N=C(C)/C(=C/c3cccc([N+](=O)[O-])c3)C2=O)cc1 | > 100 |  | > 100 |  | > 100 | > 100 | > 100 |  |  |  |
| N#CC1(c2ccccc2)CCN(C2(c3ccccc3)CCCCC2)CC1 | > 100 | > 100 | > 100 | > 100 | > 100 |  | > 100 | > 100 | > 100 | > 100 |
| CN(/N=N/c1nc[nH]c1C(N)=O)C1CCCCC1 | > 100 | > 100 | > 100 | > 100 | > 100 | > 100 | > 100 |  |  |  |
| [N-]=[N+]=NC[C@H]1OCO[C@H](CN=[N+]=[N-])[C@H]2OCCOCCOc3ccccc3OCCOCCO[C@@H]21 | > 100 | > 100 | > 100 | > 100 |  | > 100 | > 100 | > 100 | > 100 | > 100 |
| C=CCC1(CC)C(=O)NC(=O)NC1=O | > 100 | > 100 | > 100 | > 100 | > 100 | > 100 | > 100 |  |  |  |
| C=CC(C)(C)c1cc([C@@H]2COc3cc(O)ccc3C2=O)c(O)c(O)c1OC | 56.6 | 32 | 40.7 |  | > 100 | 57.9 | 49 | 34.7 | 32.7 | 39.2 |
| ONC1=Nc2ccccc2OCc2cc(Br)c(Br)cc2COc2ccccc2N=C1NO | > 54.7 | > 44.4 | > 46 | > 37.7 | 15.2 |  | 24.2 | 31.3 | 42.5 | > 54.3 |
| CCN1CCCC(Nc2cc(C)nc(/N=C(/N)Nc3ccc(Cl)c(Cl)c3)n2)C1 (stereo not drawn) | 2.71 | 3.7 | 3.46 | 3.06 | 2.88 | 3.66 | 5.59 |  | 3.29 | 2.89 |
| CCOC(=O)c1c(NCc2ccccc2)n(-c2ccccc2)c(=S)n(-c2ccccc2)c1=O | > 100 | > 100 | > 100 | > 100 | > 100 |  | > 100 |  | > 100 | > 100 |
| COC(=O)/C=C/c1cc(OC)c2oc(-c3ccc(OC)c(OC)c3)c(C(=O)OC)c2c1 |  | > 100 | > 100 | > 100 | > 100 |  | > 100 | > 100 | > 100 | > 100 |
| Cc1ccc(S(=O)(=O)c2ccc([N+](=O)[O-])o2)cc1 | 11.8 | 2.83 |  | 3.37 |  | 3.34 | 40.4 | 3.28 | 6.16 | 3.69 |
| CSCCCNC(=O)c1csc(-c2csc(CCNC(=O)CNC(=O)CNC(=O)CNC(=O)OC(C)(C)C)n2)n1 | > 100 | > 100 | > 100 | > 100 |  | > 100 | > 100 | > 100 | > 100 | > 100 |
| CC(C)(C)OC(=O)NCC(=O)NC1C/C(=N\O)c2sccc21 (stereo not drawn) | > 100 | > 100 |  | > 100 | > 100 | > 100 | > 100 | > 100 | > 100 | > 100 |
| Cc1c(C#N)c2nnn(-c3ccccc3)c(=O)n2c1-c1ccccc1 | 18.2 | > 100 | 29.1 | > 100 | 19.3 |  | > 100 | > 100 | > 100 |  |
| COc1cc(/C=C2\Cc3cc(OC)c(OC)cc3C2=O)cc(OC)c1 | > 100 | > 100 | > 100 | > 100 |  | > 42.7 | > 100 | > 100 | 69.3 | > 100 |

Reference: PubChem BioAssay (NCI)
